Reference: publication PMC12123458, “Unraveling Small Molecule-Mediated Sirtuin 3 Activation at a Distinct Binding Site for Cardioprotective Therapies” (ACS Central Science, 2025)

Tests used:
[1] = test system: LC3, p62, PINK1, Parkin in H9c2 cells; assay: Autophagy/mitophagy markers in H9c2 cells (Western blot, immunofluorescence); type: cell-based; conditions: 24 h
Protocol: Proteomic analysis was conducted on H9c2 cells and murine cardiac tissues. Protein lysates were resolved via SDS-PAGE and transferred onto PVDF membranes. […] After washing, membranes were probed with secondary antibodies for 1 h at room temperature. Detection was facilitated by an ECL kit, with densitometry performed using ImageJ software to quantify protein expression, normalized against controls. The antibodies employed included: anti-SIRT3 (2627, Cell Signaling Technology), anti-acetylated lysine (9441, CST), anti-Ac.K68-MnSOD2 (ab137037, Abcam), anti-Ac.K122-MnSOD2 (ab214675, Abcam), anti-MnSOD2 (13141, CST), anti-LC3B (3868, CST), anti-p62 (8025, CST), anti-PINK1 (6946, CST), anti-Parkin (4211, CST), and anti-β-actin (ab8226, Abcam).

H9c2 cells = assay: Dox-induced cardiotoxicity model in H9c2 cells, MTT cell viability; type: cell-based; conditions: for effect of co-treatment on the cardioprotective efficacy of SKLB-11A: Dox-treated H9c2 cells, cell viability; for viability at 10 µM: Rattus norvegicus, H9c2, 10 µM pretreatment 24 h, then 1 µM Dox 24 h, MTT, Model (Dox) = Dox alone, read-out: Cardiomyocyte survival rate at 10 uM (%)
Protocol: H9c2 cardiomyocytes were cultured in high-glucose DMEM supplemented with 10% FBS and 1% penicillin/streptomycin under a 5% CO2 atmosphere at 37 °C. Cells were seeded at 5 × 10^4 cells/mL in 96-well plates and treated with 1 μM Dox for 24 h. After Dox treatment, cell viability was quantified via MTT assay; 3-(4,5-dimethythiazol-2-yl)-2,5-diphenyltetrazolium bromide (MTT, 5 mg/mL) was applied for 4 h, followed by DMSO dissolution of formazan crystals. Additionally, cells were pretreated with 10 μM SKLB-11A for 24 h prior to 1 μM Dox exposure, and viability was similarly assessed using MTT.

SIRT3 = biological target: T1, SIRT3 (Homo sapiens, UniProt Q9NTG7); assay: Fluor de Lys (FDL) fluorimetric SIRT3 deacetylase activity assay; type: biochemical; conditions: 100 µM, FDL deacetylation assay, compared to the control group, mean ± SD; for activity at 100 µM: 0.5 h, read-out: % effect @ 100 µM of SIRT3
T1 construct: purchased Enzo Life Sciences BML-AK557-0001
T1 sequence (Q9NTG7 1-399): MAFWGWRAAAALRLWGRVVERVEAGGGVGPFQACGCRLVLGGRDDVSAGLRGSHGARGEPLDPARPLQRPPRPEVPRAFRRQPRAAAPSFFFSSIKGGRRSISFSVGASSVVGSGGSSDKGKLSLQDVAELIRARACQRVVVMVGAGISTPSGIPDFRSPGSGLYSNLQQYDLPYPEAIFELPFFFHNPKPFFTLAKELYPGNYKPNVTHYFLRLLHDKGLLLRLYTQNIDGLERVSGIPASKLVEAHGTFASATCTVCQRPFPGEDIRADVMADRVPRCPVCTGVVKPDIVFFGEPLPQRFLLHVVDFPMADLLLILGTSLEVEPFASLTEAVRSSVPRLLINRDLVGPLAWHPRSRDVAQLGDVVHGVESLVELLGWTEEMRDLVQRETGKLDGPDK
Protocol: The SIRT3 activity was assessed using the Enzo Life Sciences kit (BML-AK557-0001) per the protocol provided. A 10 μM fluoro-acetylated p53 peptide and 500 μM NAD^+ were added to SIRT3 assay buffer, incubated with test compounds and 0.5 μg recombinant SIRT3 at 37 °C for 30 min. In the mass spectrometry (MS) assay, 5 μM hSirt3 was reacted with 0.25 mM peptide and 1.25 mM NAD^+, with or without 10 μM SKLB-11A in 2% DMSO, at 37 °C. Controls included 2% DMSO without SKLB-11A. The reaction was halted at defined intervals using 5 mM nicotinamide, and the mixture then underwent filtration and subjected to nano LC-MS/MS analysis. Acetylated Peptide: MnSOD-K122 ([…]-Ac).

With `c1cncc(-c2cn[nH]n2)c1` [3-TYP, reference compound] the “LC3-II and p62 (autophagic flux)” value [1] was “reduced LC3-II localization” and the “effect of co-treatment on the cardioprotective efficacy of SKLB-11A” value (H9c2 cells) was “attenuated the efficacy of SKLB-11A”.

`COc1cccc2c1C(=O)c1c(O)c3c(c(O)c1C2=O)C[C@@](O)(C(=O)CO)C[C@@H]3O[C@H]1C[C@H](N)[C@H](O)[C@H](C)O1` [Dox, doxorubicin, reference compound] gave a viability at 10 µM (H9c2 cells) of 61.93 ± 0.51%.

With `COc1cc(-n2c(=S)[nH]c3ccccc3c2=O)c(Cl)cc1Cl` [Mdivi-1, reference compound] the “effect of co-treatment on the cardioprotective efficacy of SKLB-11A” value (H9c2 cells) was “attenuated the cardioprotective effects of SKLB-11A”.

`COc1ccc(Cn2c(N)c(C#N)c3nc4ccccc4nc32)cc1` [SKLB-4A, 2-amino-1-(4-methoxybenzyl)-1H-pyrrolo[2,3-b]quinoxaline-3-carbonitrile] gave a viability at 10 µM (H9c2 cells) of 65.3 ± 4.54% and an activity at 100 µM (SIRT3) of 118.2 ± 0.79%.

For `N#Cc1c(N)n(Cc2ccc(F)cc2)c2nc3ccccc3nc12` [SKLB-4B, 2-amino-1-(4-fluorobenzyl)-1H-pyrrolo[2,3-b]quinoxaline-3-carbonitrile], the viability at 10 µM (H9c2 cells) was 70.8 ± 3.03%, the “% effect @ 100 µM of SIRT3” value (SIRT3) was “significant increase in SIRT3 deacetylation activity” and the activity at 100 µM (SIRT3) was 130.6 ± 0.36%.

`N#Cc1c(N)n(Cc2ccc(Br)cc2)c2nc3ccccc3nc12` [SKLB-4C, 2-amino-1-(4-bromobenzyl)-1H-pyrrolo[2,3-b]quinoxaline-3-carbonitrile] showed a viability at 10 µM (H9c2 cells) of 68.25 ± 0.51% and an activity at 100 µM (SIRT3) of 126.4 ± 0.81%.

With `COc1cccc(-n2c(N)c(C#N)c3nc4ccccc4nc32)c1` [SKLB-4D, 2-amino-1-(3-methoxyphenyl)-1H-pyrrolo[2,3-b]quinoxaline-3-carbonitrile] the viability at 10 µM (H9c2 cells) was 64.4 ± 3.28% and the activity at 100 µM (SIRT3) was 103.1 ± 1.02%.

`COc1ccc(-n2c(N)c(C#N)c3nc4ccccc4nc32)cc1` [SKLB-4E, 2-amino-1-(4-methoxyphenyl)-1H-pyrrolo[2,3-b]quinoxaline-3-carbonitrile] was tested, and the viability at 10 µM (H9c2 cells) was 65.9 ± 2.41% and the activity at 100 µM (SIRT3) was 110.4 ± 0.95%.

`N#Cc1c(N)n(-c2ccccc2F)c2nc3ccccc3nc12` [SKLB-4F, 2-amino-1-(2-fluorophenyl)-1H-pyrrolo[2,3-b]quinoxaline-3-carbonitrile] showed a viability at 10 µM (H9c2 cells) of 65.17 ± 0.38% and an activity at 100 µM (SIRT3) of 106 ± 1.96%.

`Nc1c(C(=O)O)c2nc3ccccc3nc2n1Cc1ccc(F)cc1` [SKLB-5A, 2-amino-1-(4-fluorobenzyl)-1H-pyrrolo[2,3-b]quinoxaline-3-carboxylic acid] was tested, and the viability at 10 µM (H9c2 cells) was 75.5 ± 2.69% and the activity at 100 µM (SIRT3) was 154 ± 2.69%.

`CC(C)(C)OC(=O)Nc1c(C(=O)O)c2nc3ccccc3nc2n1Cc1ccc(F)cc1` [SKLB-7A, 2-((tert-butoxycarbonyl)amino)-1-(4-fluorobenzyl)-1H-pyrrolo[2,3-b]quinoxaline-3-carboxylic acid] was tested, and the viability at 10 µM (H9c2 cells) was 66.1 ± 0.8%, the “% effect @ 100 µM of SIRT3” value (SIRT3) was “significantly reduced SIRT3 deacetylation activity” and the activity at 100 µM (SIRT3) was 109.3 ± 0.71%.

For `CCOC(=O)c1c(N)n(Cc2ccc(F)cc2)c2nc3ccccc3nc12` [SKLB-11B, Ethyl 2-amino-1-(4-fluorobenzyl)-1H-pyrrolo[2,3-b]quinoxaline-3-carboxylate], the viability at 10 µM (H9c2 cells) was 77 ± 1.96%, the “% effect @ 100 µM of SIRT3” value (SIRT3) was “maintained or enhanced the activity” and the activity at 100 µM (SIRT3) was 167.4 ± 1.13%.

In the case of `CC(C)OC(=O)c1c(N)n(Cc2ccc(F)cc2)c2nc3ccccc3nc12` [SKLB-11C, Isopropyl 2-amino-1-(4-fluorobenzyl)-1H-pyrrolo[2,3-b]quinoxaline-3-carboxylate], the viability at 10 µM (H9c2 cells) is reported as 70.2 ± 1.89% and the activity at 100 µM (SIRT3) is reported as 124.2 ± 0.84%.

With `CC(C)(C)OC(=O)c1c(N)n(Cc2ccc(F)cc2)c2nc3ccccc3nc12` [SKLB-11D, Tert-butyl 2-amino-1-(4-fluorobenzyl)-1H-pyrrolo[2,3-b]quinoxaline-3-carboxylate] the viability at 10 µM (H9c2 cells) was 74.3 ± 1.7%, the “% effect @ 100 µM of SIRT3” value (SIRT3) was “maintained or enhanced the activity” and the activity at 100 µM (SIRT3) was 148 ± 3.07%.

Work on `Nc1c(C(=O)Oc2ccccc2)c2nc3ccccc3nc2n1Cc1ccc(F)cc1` [SKLB-11E, Phenyl 2-amino-1-(4-fluorobenzyl)-1H-pyrrolo[2,3-b]quinoxaline-3-carboxylate] yielded a viability at 10 µM (H9c2 cells) of 71.3 ± 4.34% and an activity at 100 µM (SIRT3) of 130.6 ± 1.27%.

With `CC(C)(C)OC(=O)c1c(N)n(Cc2ccccc2)c2nc3ccccc3nc12` [SKLB-11F, Tert-butyl 2-amino-1-benzyl-1H-pyrrolo[2,3-b]quinoxaline-3-carboxylate] the viability at 10 µM (H9c2 cells) was 69 ± 1.22% and the activity at 100 µM (SIRT3) was 122.7 ± 0.59%.

For `Cc1ccc(Cn2c(N)c(C(=O)OC(C)(C)C)c3nc4ccccc4nc32)cc1` [SKLB-11G, Tert-butyl 2-amino-1-(4-methylbenzyl)-1H-pyrrolo[2,3-b]quinoxaline-3-carboxylate], the viability at 10 µM (H9c2 cells) was 63.93 ± 0.62% and the activity at 100 µM (SIRT3) was 107 ± 1.42%.

`COc1ccc(Cn2c(N)c(C(=O)OC(C)(C)C)c3nc4ccccc4nc32)cc1` [SKLB-11H, Tert-butyl 2-amino-1-(4-methoxybenzyl)-1H-pyrrolo[2,3-b]quinoxaline-3-carboxylate] gave a viability at 10 µM (H9c2 cells) of 68.7 ± 4.61% and an activity at 100 µM (SIRT3) of 125.7 ± 0.91%.

`NC(=O)c1c(N)n(Cc2ccc(F)cc2)c2nc3ccccc3nc12` [SKLB-11I, 2-amino-1-(4-fluorobenzyl)-1H-pyrrolo[2,3-b]quinoxaline-3-carboxamide] was tested, and the viability at 10 µM (H9c2 cells) was 70.8 ± 3.76% and the activity at 100 µM (SIRT3) was 135 ± 2.43%.

`CNC(=O)c1c(N)n(Cc2ccc(F)cc2)c2nc3ccccc3nc12` [SKLB-11J, 2-amino-1-(4-fluorobenzyl)-N-methyl-1H-pyrrolo[2,3-b]quinoxaline-3-carboxamide] showed a viability at 10 µM (H9c2 cells) of 72.4 ± 2.21% and an activity at 100 µM (SIRT3) of 150 ± 1.75%.

For `CCNC(=O)c1c(N)n(Cc2ccc(F)cc2)c2nc3ccccc3nc12` [SKLB-11K, 2-amino-N-ethyl-1-(4-fluorobenzyl)-1H-pyrrolo[2,3-b]quinoxaline-3-carboxamide], the viability at 10 µM (H9c2 cells) was 71.5 ± 2.09% and the activity at 100 µM (SIRT3) was 144.3 ± 0.82%.

For `CCCCNC(=O)c1c(N)n(Cc2ccc(F)cc2)c2nc3ccccc3nc12` [SKLB-11L, 2-amino-N-butyl-1-(4-fluorobenzyl)-1H-pyrrolo[2,3-b]quinoxaline-3-carboxamide], the viability at 10 µM (H9c2 cells) was 67.1 ± 1.6% and the activity at 100 µM (SIRT3) was 123.6 ± 0.95%.

Compound `Nc1c(C(=O)NC2CC2)c2nc3ccccc3nc2n1Cc1ccc(F)cc1` [SKLB-11M, 2-amino-N-cyclopropyl-1-(4-fluorobenzyl)-1H-pyrrolo[2,3-b]quinoxaline-3-carboxamide] has a viability at 10 µM (H9c2 cells) of 64.5 ± 0.87% and an activity at 100 µM (SIRT3) of 104 ± 1.75%.

Compound `CCCCCNC(=O)c1c(N)n(Cc2ccccc2)c2nc3ccccc3nc12` [SKLB-11N, 2-amino-1-benzyl-N-pentyl-1H-pyrrolo[2,3-b]quinoxaline-3-carboxamide] has a viability at 10 µM (H9c2 cells) of 66.3 ± 4.52% and an activity at 100 µM (SIRT3) of 119 ± 3.3%.

`CCCCCNC(=O)c1c(N)n(Cc2ccc(Br)cc2)c2nc3ccccc3nc12` [SKLB-11O, 2-amino-1-(4-bromobenzyl)-N-pentyl-1H-pyrrolo[2,3-b]quinoxaline-3-carboxamide] gave a viability at 10 µM (H9c2 cells) of 69.2 ± 1.35% and an activity at 100 µM (SIRT3) of 126 ± 1.32%.

With `CCCCCNC(=O)c1c(N)n(Cc2cccc(Br)c2)c2nc3ccccc3nc12` [SKLB-11P, 2-amino-1-(3-bromobenzyl)-N-pentyl-1H-pyrrolo[2,3-b]quinoxaline-3-carboxamide] the viability at 10 µM (H9c2 cells) was 65.8 ± 4.18% and the activity at 100 µM (SIRT3) was 116.2 ± 0.57%.

In the case of `CCCCCNC(=O)c1c(N)n(Cc2cccc(Cl)c2)c2nc3ccccc3nc12` [SKLB-11Q, 2-amino-1-(3-chlorobenzyl)-N-pentyl-1H-pyrrolo[2,3-b]quinoxaline-3-carboxamide], the viability at 10 µM (H9c2 cells) is reported as 66.5 ± 1.19% and the activity at 100 µM (SIRT3) is reported as 118 ± 0.63%.
